Experimental data from patent US20090264420A1, “ORGANIC COMPOUNDS” (priority 2006, published 2009).
pIC50: −log10 of the molar value.

What was measured:
aldosterone synthase = target: T1, aldosterone synthase (Homo sapiens, UniProt P19099); assay: Aldosterone production in Ang II-stimulated NCI-H295R cells (aldosterone synthase inhibition); assay type: cell-based; details: AS: aldosterone synthase
T1 construct: host or cells: NCI-H295R
T1 sequence (P19099 25-503): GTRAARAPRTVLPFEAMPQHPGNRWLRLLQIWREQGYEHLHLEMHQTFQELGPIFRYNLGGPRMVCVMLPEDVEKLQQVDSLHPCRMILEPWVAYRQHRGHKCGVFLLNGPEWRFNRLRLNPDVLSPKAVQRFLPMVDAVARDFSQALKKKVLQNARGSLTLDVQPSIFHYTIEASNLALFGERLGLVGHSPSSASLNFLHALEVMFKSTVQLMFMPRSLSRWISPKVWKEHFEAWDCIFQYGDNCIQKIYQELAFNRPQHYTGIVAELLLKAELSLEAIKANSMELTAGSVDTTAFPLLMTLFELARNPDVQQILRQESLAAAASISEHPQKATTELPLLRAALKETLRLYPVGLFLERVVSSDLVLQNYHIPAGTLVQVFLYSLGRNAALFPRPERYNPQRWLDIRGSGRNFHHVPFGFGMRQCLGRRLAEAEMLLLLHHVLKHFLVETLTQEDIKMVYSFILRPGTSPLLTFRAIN
Text: (§1) Human adrenocortical carcinoma NCI-H295R cell line is obtained from American Type Culture Collection (Manassas, Va.). Insulin/transferrin/selenium (ITS)-A supplement (100×), DMEM/F-12, antibiotic/antimycotic (100×), and fetal calf serum (FCS) are purchased from Gibco (Grand Island, N.Y.). Anti-mouse PVT scintillation proximity assay (SPA) beads and NBS 96-well plates are obtained from Amersham (Piscataway, N.J.) and Corning (Acton, Mass.), respectively. Solid black 96-well flat bottom plates are purchased from Costar (Corning, N.Y.). Aldosterone and angiotensin (Ang II) are purchased from Sigma (St. Louis, Mo.). D-[1,2,6,7^−3H(N)]aldosterone was acquired from PerkinElmer (Boston, Mass.). Nu-serum was a product of BD Biosciences (Franklin Lakes, N.J.). The NADPH regenerating system, dibenzylfluorescein (DBF), and human aromatase Supersomes® are obtained from Gentest (Woburn, Mass.).
For in vitro measurement of aldosterone activity, human adrenocortical carcinoma NCI-H295R cells are seeded in NBS 96-well plates at a density of 25,000 cells/well in 100 μl′ of a growth medium containing DMEM/F12 supplemented with 10% FCS, 2.5% Nu-serum, 1 μg ITS/ml, and 1× antibiotic/antimycotic. The medium is changed after culturing for 3 days at 37° C. under an atmosphere of 5% CO2/95% air. On the following day, cells are rinsed with 100 μl of DMEM/F12 and incubated with 100 μl of treatment medium containing 1 μM Ang II and a compound at different concentrations in quadruplicate wells at 37° C. for 24 hr. At the end of incubation, 50 μl of medium is withdrawn from each well for measurement of aldosterone production by an RIA using mouse anti-aldosterone monoclonal antibodies.
Measurement of aldosterone activity can also be performed using, a 96-well plate format. Each test sample is incubated with 0.02 μCi of D-[1,2,6,7-^3H(N)]aldosterone and 0.3 μg of anti-aldosterone antibody in phosphate-buffered saline (PBS) containing 0.1% Triton X-100, 0.1% bovine serum albumin, and 12% glycerol in a total volume of 200 μl at room temperature for 1 hr. Anti-mouse PVT SPA beads (50 μl) are then added to each well and incubated overnight at room temperature prior to counting in a Microbeta plate counter. The amount of aldosterone in each sample is calculated by comparing with a standard curve generated using known quantities of the hormone.
(§2) Full concentration-response curves of the test compound are performed at least 3 times. The IC50 values are derived using a non-linear least squares curve-fitting program from Microsoft XLfit.

human aromatase = target: T2, human aromatase (Homo sapiens, UniProt P11511); assay: Human aromatase assay with dibenzylfluorescein substrate (fluorescence); assay type: biochemical; details: 1.5 h; percentage of inhibitory rate at 10 μM; ARO: Aromatase; read-out: ARO % I @ 10 μM
T2 construct: purchased Gentest (Woburn, Mass.)
T2 sequence (P11511 1-503): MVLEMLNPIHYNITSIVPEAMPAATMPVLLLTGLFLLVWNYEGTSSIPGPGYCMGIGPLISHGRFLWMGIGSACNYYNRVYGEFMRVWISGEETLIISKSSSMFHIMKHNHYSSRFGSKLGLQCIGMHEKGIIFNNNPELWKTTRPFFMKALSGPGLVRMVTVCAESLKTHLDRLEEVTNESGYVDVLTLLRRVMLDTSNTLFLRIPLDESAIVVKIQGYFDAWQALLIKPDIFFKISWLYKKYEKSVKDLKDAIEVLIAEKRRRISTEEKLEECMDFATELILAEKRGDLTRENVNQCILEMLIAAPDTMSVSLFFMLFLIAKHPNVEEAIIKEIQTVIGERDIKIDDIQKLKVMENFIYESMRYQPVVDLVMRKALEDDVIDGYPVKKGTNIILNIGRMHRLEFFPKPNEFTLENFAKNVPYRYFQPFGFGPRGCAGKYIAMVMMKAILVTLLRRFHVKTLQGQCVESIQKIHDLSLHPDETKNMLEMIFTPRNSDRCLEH
Text: as §1
To measure aromatase activity, the human aromatase assay is performed in 96-well flat bottom plates according to a published protocol (Stresser et al, 2000) with minor modifications. Briefly, 10 μl, of an NADPH regenerating system containing 2.6 mM NADP^+, 6.6 mM glucose 6-phosphate, 6.6 mM MgCl2, and 0.8 U/ml glucose-6-phosphate dehydrogenase in 50 mM potassium phosphate, pH 7.4, is pre-incubated with the test compound at a desired concentration at 30° C. for 10 min in a total volume of 100 μl. Afterwards, 4 pmol of human aromatase, 20 μg of control microsomal protein, and 4 μM DBF in 100 μl of 50 mM potassium phosphate, pH 7.4, is added to each well and incubated at 30° C. for 90 min. The reaction is terminated by the addition of 75 μl of 2 N NaOH to each well. After 2 hr, the product, fluorescein, is measured by a fluorimeter using excitation and emission wavelengths of 485 and 538 nm, respectively.
as §2

CYP11B1 = target: T3, CYP11B1 (Homo sapiens, UniProt P15538); assay: CYP11B1 inhibition in NCI-H295R cells (steroid release by radioimmunoassay); assay type: cell-based; details: percentage of inhibitory rate at 100 nM; 11B1: CYP11B1
T3 construct: Thus, the NCI-H295R cells have Cyp 11 B1 (steroid 11 p-hydroxylase); host or cells: NCI-H295R
T3 sequence (P15538 25-503): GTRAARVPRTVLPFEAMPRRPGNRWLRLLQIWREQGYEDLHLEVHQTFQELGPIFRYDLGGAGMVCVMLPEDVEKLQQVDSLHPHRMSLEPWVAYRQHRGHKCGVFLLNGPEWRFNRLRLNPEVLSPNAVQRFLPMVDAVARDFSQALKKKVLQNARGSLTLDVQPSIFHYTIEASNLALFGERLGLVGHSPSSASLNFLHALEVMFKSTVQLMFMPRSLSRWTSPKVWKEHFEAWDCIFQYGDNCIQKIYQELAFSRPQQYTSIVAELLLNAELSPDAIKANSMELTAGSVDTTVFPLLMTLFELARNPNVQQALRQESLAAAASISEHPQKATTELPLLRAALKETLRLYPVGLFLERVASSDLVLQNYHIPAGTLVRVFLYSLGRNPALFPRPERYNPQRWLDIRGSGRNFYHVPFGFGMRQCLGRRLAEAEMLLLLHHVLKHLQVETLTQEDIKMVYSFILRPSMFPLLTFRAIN
Text: The in vitro inhibitory activities for CYP 11 B1 can be determined by the following assay.
The cell line NCI-H295R was originally isolated from an adrenocortical carcinoma and has been characterized in the literature through the stimulable secretion of steroid hormones and the presence of the enymes essential for steroidogenesis. Thus, the NCI-H295R cells have Cyp 11 B1 (steroid 11 p-hydroxylase). The cells show the physiological property of zonally undifferentiated human foetal adrenocortical cells which, however, have the capacity to produce the steroid hormones which are formed in the three, phenotypically distinguishable zones in the adult adrenal, cortex.
The NCI-H295R cells (American Type Culture Collection, ATCC, Rockville, Md., USA) are grown in Dulbeoco's Modified Eagle Ham F-12 Medium (DME/F12), which has been I supplemented with Ulroser SF Serum (Soprachem, Cergy-Saint-Christophe, France), insulin, transferrin, selenite (1-T-S, Becton Dickinson Biosiences, Franklin lakes, NJ, USA) and antibiotics in 75 cm^2 cell culture vessels at 37° C. and in a 95% air-5% carbon dioxide atmosphere. The cells are subsequently transferred for colony formation into a 24-well incubation vessel. They are cultivated there in DME/F12 medium, which is now supplemented with 0.1% bovine serum instead of Ultroser SF for 24 hours. The experiment is initiated by cultivating the cells in DME/F12 medium which is supplemented with 0.1% bovine serum albumin and test compound, in the presence or absence of cell stimulants, for 72 hours. The test substance is added in a concentration range from 0.2 nanomolar to […]. […]
The excretion of aldosterone, cortisol, corticosterone and estradiol/estrone into the culture medium can be detected and quantified by commercially available; specific monoclonal antibodies in radioimmunoassays in accordance with the manufacturer's instructions.
Inhibition of the release of certain steroids can be used as a measure of the respective enzyme inhibition by the added test compounds. The dose-dependent inhibition of enzymic activity by a compound is calculated by means of an inhibition plot which is characterized by an IC50.
The IC50 values for active test compounds are ascertained by a simple linear regression analysis in order to construct inhibition plots without data weighting. The inhibition plot is calculated by fting a 4-parameter logistic function to the raw data points using the least squares method. The equation of the 4-parameter logistic function is calculated as follows: Y=(d−a)/((1+(x/c)b))+aI where: a=minimum data level b gradient I c=ICED d=maximum data level x=inhibitor concentration.

| pIC50 (aldosterone synthase) | inhibition at 10 µM (human aromatase) | 11B1 % I @ 100 nM (CYP11B1) | SMILES |
| --- | --- | --- | --- |
| 6.86 | 18% |  | CCC1(C(C)(C)C)C(=O)N(Cc2ccc(F)cc2)Cc2cncn21 (single isomer, unassigned) [Compound 1, 5-tert-Butyl-5-ethyl-7-(4-fluoro-benzyl)-7,8-dihydro-imidazo[1,5-a]pyrazin-6-one] |
| 7.32 | 60% | 100% | CCC(C)(C)C1C(=O)N(Cc2cccc(F)c2)CCc2cncn21 (single isomer, unassigned) [Compound 2, 4-(1,1-Dimethyl-propyl)-6-(3-fluoro-benzyl)-7,8-dihydro-6H-2,3a,6-triaza-azulen-5-one] |
| 7.96 | 48% |  | CC(C)C1C(=O)N(CC2CCCCC2)Cc2cncn21 (single isomer, unassigned) [Compound 3, 7-Cyclohexylmethyl-5-isopropyl-7,8-dihydro-imidazo[5-a]pyrazin-6-one] |
| 7.74 | 93% |  | O=C1C(C2CCC2)n2cncc2CN1Cc1ccc(F)cc1 (single isomer, unassigned) [Compound 5, 5-Cyclobutyl-7-(4-fluoro-benzyl)-7,8-dihydro-imidazo[1,5-a]pyrazin-6-one] |
| 8.52 | 51% | 98% | CC(C)(C)C1C(=O)N(Cc2ccc(Cl)cc2)Cc2cncn21 (single isomer, unassigned) [Compound 6, 5-tert-Butyl-7-(4-chloro-benzyl)-7,8-dihydro-imidazo[1,5-a]pyrazin-6-one] |
| 8.15 | 50% |  | CCC(C)(C)C1C(=O)N(CC2CCCCC2)Cc2cncn21 (single isomer, unassigned) [Compound 7, 7-Cyclohexylmethyl-5 (1,1-dimethyl-propyl)-7,8-dihydro-imidazo[1,5-a]pyrazin-6-one] |
| 7.18 | 74% | 95% | N#Cc1ccc(CN2Cc3cncn3C(C3CC3)C2=O)cc1 (single isomer, unassigned) [Compound 8, 4-(5-Cyclopropyl-6-oxo-5,6-dihydro-8H-imidazo[1,5-a]pyrazin-7-ylmethyl)-benzonitrile] |
| 6.64 | 94% |  | CC(C)C1C(=O)N(Cc2cccc(F)c2)Cc2cncn21 (single isomer, unassigned) [Compound 9, 7-(3-Fluoro-benzyl)-5-isopropyl-7,8-dihydro-imidazo[1,5-a]pyrazin-6-one] |
| 6.72 |  |  | CCC(C)(C)C1C(=O)N(CC2CCOCC2)Cc2cncn21 (single isomer, unassigned) [Compound 10, 5-(1,1-Dimethyl-propyl)-7-(tetrahydro-pyran-4-ylmethyl)-7,8-dihydro-imidazo[5-a]pyrazin-6-one] |
| 6.71 | 99% |  | O=C1C(C2CCC2)n2cncc2CCN1Cc1ccc(F)cc1 (single isomer, unassigned) [Compound 11, 4-Cyclobutyl-6-(4-fluoro-benzyl)-7,8-dihydro-6H-2,3a,6-triaza-azulen-5-one] |
| 7.14 |  | 99% | O=C1N(Cc2ccc(F)cc2)Cc2cncn2C12CCCCC2 [Compound 4, 7′-(4-fluorobenzyl)-7′,8′-dihydro-6′H-spiro[cyclohexane-1,5′-imidazole[1,5-a]pyrazin]-6-one] |
